Experimental data from patent publication US12427210B2, “Compounds comprising a fibroblast activation protein ligand and use thereof” (priority 2019, dated 2025).
Read-outs that look alike come from different tables or passages of the source. Numbered stars: 1 amine (or outer) side, 2 acyl side, 3 side chain; on linkers, the order of the positions; unused ones are H or OH. Bridge positions count the residues as written; N and C are the ends. Peptide text beside a SMILES is read from it. * marks the point of attachment. X1 = O=C(O)CN1CCN(CC(=O)O)CCN(CC(=O)N2CCN(Cc3cc(C[*:1])cc(C[*:2])c3)CC2)CCN(CC(=O)O)CC1; Hexanoyl = CCCCCC(=O)*

Experiments:
[1] = molecular target: norepinephrine transporter (h) (Homo sapiens, UniProt P23975); test: biochemical; settings: read-out: % Inhibition of Specific Binding
Matrix metalloprotease 2 = molecular target: T1, Matrix metalloprotease 2 (Homo sapiens, UniProt P08253); test: biochemical; settings: read-out: Percentage inhibition (%)
T1 sequence (P08253 110-660): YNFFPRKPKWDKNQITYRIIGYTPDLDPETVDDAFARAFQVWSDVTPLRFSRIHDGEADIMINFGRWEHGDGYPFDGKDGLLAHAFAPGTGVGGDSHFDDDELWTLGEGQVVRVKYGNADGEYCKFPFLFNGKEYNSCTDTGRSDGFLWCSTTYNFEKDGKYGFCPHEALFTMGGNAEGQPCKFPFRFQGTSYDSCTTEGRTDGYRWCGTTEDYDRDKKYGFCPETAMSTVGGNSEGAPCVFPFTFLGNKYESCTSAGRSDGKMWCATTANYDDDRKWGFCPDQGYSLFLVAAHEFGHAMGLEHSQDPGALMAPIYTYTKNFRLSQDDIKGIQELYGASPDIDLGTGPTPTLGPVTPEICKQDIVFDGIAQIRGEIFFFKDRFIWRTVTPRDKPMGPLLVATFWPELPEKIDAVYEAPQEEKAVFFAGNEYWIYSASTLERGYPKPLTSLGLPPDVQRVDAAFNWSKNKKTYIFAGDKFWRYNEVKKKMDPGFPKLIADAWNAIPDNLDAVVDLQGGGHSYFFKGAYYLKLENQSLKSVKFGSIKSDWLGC

M1 (h) = M1 (h) (Homo sapiens, UniProt P11229); test: biochemical; settings: read-out: % Inhibition of Specific Binding
Sequence of M1 (h) (P11229 whole entry): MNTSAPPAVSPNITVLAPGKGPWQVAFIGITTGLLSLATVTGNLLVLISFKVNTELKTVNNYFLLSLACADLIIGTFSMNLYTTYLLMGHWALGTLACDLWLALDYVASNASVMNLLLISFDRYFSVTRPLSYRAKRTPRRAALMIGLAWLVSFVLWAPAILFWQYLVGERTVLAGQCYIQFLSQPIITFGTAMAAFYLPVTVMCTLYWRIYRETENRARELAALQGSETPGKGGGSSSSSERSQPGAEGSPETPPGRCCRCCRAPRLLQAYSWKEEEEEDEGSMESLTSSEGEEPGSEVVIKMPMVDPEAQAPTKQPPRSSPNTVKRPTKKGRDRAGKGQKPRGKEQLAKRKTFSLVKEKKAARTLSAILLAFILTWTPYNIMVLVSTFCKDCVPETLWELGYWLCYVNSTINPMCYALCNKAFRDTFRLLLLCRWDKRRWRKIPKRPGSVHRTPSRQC

FAP = FAP (Homo sapiens, UniProt Q12884); test: biochemical; settings: read-out: Percentage inhibition (%)
Sequence of FAP (Q12884 whole entry): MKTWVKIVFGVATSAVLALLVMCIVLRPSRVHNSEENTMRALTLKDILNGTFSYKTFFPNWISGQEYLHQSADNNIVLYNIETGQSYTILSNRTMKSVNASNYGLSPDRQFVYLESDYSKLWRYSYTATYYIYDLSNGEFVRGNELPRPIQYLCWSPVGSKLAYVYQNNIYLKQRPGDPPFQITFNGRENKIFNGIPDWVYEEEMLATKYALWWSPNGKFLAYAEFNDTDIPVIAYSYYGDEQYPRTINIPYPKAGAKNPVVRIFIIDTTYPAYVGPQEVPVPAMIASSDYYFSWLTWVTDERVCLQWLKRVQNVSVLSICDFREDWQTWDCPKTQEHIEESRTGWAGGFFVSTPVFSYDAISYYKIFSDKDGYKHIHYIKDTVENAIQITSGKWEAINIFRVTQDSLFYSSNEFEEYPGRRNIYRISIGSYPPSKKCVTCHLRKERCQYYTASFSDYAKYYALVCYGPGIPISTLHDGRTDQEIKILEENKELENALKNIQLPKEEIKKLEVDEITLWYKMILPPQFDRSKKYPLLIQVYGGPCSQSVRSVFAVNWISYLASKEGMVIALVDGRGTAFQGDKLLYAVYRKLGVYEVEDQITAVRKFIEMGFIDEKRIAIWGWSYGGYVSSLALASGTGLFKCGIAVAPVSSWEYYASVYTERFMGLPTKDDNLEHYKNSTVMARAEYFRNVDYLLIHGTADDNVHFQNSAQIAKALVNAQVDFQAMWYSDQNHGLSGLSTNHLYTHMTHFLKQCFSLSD

DPP7 = DPP7 (Homo sapiens, UniProt Q9UHL4); test: biochemical; settings: read-out: Percentage inhibition (%)
5-HT2A (h) = 5-HT2A (h) (Homo sapiens, UniProt P28223); test: biochemical; settings: read-out: % Inhibition of Specific Binding
Sequence of 5-HT2A (h) (P28223 whole entry): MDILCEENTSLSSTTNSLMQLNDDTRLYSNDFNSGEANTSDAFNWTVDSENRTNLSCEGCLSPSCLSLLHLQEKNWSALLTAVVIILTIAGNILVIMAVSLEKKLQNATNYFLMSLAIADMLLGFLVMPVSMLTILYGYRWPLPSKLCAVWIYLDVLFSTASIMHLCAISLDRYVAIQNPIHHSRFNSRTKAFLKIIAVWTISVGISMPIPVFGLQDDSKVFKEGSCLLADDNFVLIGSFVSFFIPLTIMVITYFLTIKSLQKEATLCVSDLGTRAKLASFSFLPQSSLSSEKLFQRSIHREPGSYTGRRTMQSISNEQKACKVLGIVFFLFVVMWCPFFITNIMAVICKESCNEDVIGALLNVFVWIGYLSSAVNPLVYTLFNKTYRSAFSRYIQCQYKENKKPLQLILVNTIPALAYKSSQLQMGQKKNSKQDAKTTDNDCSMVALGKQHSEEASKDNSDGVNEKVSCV

5-HT transporter (h) = 5-HT transporter (h) (Homo sapiens, UniProt P31645); test: biochemical; settings: read-out: % Inhibition of Specific Binding
Sequence of 5-HT transporter (h) (P31645 whole entry): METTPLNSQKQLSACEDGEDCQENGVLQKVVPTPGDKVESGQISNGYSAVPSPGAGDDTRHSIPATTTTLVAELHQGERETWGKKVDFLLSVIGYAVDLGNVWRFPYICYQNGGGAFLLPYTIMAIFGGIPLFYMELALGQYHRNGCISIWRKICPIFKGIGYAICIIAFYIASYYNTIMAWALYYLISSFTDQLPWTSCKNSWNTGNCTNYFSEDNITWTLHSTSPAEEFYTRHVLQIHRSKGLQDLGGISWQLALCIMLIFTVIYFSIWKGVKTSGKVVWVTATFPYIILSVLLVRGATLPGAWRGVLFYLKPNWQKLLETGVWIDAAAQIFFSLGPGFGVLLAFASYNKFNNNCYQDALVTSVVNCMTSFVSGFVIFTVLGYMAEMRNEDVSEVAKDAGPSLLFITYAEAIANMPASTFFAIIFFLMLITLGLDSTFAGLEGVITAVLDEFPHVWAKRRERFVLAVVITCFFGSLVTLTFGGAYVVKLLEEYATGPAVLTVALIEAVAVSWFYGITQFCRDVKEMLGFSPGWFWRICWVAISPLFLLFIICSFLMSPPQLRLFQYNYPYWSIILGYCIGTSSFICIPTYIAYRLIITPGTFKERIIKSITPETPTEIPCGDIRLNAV

[2] = system: serine protease NS3 (a.a. 3-181) from Hepatitis C virus genotype 1b (mutant D168V)
Caspase-6 = molecular target: T2, Caspase-6 (Homo sapiens, UniProt P55212); test: biochemical; settings: read-out: Percentage inhibition (%)
T2 sequence (P55212 24-179 limits assumed): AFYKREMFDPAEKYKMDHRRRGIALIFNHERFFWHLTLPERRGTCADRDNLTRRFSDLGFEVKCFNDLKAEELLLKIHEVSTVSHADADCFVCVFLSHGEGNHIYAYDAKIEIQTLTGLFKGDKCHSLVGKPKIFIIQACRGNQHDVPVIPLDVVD
T2 sequence (P55212 194-293 limits assumed): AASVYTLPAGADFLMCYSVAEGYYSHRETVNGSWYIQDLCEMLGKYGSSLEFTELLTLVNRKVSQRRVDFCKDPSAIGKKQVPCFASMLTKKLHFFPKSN

5-HT1A (h) = 5-HT1A (h) (Homo sapiens, UniProt P08908); test: biochemical; settings: read-out: % Inhibition of Specific Binding
Sequence of 5-HT1A (h) (P08908 whole entry): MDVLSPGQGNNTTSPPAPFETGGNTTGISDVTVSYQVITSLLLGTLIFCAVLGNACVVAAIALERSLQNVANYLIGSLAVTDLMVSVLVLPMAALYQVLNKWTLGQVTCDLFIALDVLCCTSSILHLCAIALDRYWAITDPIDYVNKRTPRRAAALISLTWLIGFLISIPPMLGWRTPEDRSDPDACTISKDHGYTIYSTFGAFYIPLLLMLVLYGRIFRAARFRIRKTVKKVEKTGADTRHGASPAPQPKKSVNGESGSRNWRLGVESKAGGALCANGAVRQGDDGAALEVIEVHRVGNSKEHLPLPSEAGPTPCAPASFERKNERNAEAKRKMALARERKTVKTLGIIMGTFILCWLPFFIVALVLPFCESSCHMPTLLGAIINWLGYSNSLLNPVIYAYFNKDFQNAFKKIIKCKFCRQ

M2 (h) = M2 (h) (Homo sapiens, UniProt P08172); test: biochemical; settings: read-out: % Inhibition of Specific Binding
Sequence of M2 (h) (P08172 whole entry): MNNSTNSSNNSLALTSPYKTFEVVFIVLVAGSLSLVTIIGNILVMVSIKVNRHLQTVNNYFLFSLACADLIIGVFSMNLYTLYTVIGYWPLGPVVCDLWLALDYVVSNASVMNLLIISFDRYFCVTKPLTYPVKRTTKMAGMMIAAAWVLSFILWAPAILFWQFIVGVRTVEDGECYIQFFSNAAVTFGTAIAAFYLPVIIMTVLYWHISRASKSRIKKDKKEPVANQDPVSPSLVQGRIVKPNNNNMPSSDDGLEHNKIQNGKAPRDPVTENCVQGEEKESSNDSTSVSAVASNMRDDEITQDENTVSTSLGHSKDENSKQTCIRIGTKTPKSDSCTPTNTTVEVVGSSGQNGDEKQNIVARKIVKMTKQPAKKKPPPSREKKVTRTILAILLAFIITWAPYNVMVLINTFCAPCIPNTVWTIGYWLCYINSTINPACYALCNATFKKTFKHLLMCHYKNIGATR

Caspase-9 = Caspase-9 (Homo sapiens, UniProt P55211); test: biochemical; settings: read-out: Percentage inhibition (%)
Sequence of Caspase-9 (P55211 1-315 limits assumed, species assumed): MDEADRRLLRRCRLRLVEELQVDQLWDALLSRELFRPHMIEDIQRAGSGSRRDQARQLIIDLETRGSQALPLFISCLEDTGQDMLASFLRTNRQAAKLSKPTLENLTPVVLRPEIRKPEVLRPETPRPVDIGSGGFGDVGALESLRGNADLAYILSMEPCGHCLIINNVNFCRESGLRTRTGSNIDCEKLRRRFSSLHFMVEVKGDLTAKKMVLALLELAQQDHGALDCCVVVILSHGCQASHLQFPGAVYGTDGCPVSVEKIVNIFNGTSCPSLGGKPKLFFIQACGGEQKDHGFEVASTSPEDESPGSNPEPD
Sequence of Caspase-9 (P55211 331-416 limits assumed, species assumed): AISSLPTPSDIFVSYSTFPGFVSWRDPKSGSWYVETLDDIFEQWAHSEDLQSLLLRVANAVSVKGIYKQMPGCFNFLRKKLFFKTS

DPP8 = DPP8 (Homo sapiens, UniProt Q6V1X1); test: biochemical; settings: read-out: Percentage inhibition (%)
Sequence of DPP8 (Q6V1X1 whole entry, species assumed): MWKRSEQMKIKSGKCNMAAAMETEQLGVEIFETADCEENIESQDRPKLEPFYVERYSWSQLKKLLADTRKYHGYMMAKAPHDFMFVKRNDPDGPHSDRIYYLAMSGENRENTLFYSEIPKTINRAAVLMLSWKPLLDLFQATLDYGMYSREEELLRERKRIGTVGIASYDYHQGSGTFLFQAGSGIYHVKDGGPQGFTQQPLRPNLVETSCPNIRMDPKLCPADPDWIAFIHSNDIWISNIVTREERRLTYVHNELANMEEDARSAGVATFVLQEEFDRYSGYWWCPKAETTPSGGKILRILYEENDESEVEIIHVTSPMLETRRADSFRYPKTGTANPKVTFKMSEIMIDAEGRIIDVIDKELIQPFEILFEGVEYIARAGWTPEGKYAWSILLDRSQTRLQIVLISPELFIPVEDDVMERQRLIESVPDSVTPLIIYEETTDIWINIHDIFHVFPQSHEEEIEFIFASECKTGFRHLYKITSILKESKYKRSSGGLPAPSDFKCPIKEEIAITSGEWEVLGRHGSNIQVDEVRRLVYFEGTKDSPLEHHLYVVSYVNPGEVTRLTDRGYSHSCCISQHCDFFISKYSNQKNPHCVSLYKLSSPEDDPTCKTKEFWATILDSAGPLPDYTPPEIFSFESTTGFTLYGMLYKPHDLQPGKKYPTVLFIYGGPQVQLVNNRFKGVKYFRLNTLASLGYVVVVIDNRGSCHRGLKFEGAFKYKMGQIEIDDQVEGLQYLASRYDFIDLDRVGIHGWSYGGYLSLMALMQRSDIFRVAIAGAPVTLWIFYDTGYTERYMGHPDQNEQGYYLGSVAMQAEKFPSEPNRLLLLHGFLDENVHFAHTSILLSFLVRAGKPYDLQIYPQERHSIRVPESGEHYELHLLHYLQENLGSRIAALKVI

A2A (h) = A2A (h) (Homo sapiens, UniProt P29274); test: biochemical; settings: read-out: % Inhibition of Specific Binding
Sequence of A2A (h) (P29274 whole entry): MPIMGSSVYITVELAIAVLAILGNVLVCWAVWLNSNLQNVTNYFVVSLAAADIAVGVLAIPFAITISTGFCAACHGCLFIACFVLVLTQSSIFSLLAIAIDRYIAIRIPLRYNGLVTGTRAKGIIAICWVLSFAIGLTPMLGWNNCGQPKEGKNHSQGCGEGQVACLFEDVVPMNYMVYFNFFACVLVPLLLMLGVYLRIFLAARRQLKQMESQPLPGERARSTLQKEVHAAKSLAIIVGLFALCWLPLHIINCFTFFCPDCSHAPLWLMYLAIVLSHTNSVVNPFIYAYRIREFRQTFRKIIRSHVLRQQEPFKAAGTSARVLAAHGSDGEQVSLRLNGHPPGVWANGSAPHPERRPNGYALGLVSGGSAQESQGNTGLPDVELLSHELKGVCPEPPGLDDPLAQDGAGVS

[3] = molecular target: T3, Ubiquitin carboxy-terminal hydrolase L1 (Homo sapiens, UniProt P09936); test: biochemical; settings: read-out: Percentage inhibition (%)
T3 sequence (P09936 1-223): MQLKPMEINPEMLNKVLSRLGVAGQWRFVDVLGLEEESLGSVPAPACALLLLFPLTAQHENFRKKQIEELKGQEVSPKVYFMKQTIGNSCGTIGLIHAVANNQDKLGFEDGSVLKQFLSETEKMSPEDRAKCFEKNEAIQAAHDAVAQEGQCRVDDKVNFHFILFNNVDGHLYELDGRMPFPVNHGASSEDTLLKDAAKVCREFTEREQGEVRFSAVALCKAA

[4] = molecular target: T4, Ubiquitin carboxyl-terminal hydrolase 2 (Homo sapiens, UniProt O75604); test: biochemical; settings: read-out: Percentage inhibition (%)
T4 sequence (O75604 1-605): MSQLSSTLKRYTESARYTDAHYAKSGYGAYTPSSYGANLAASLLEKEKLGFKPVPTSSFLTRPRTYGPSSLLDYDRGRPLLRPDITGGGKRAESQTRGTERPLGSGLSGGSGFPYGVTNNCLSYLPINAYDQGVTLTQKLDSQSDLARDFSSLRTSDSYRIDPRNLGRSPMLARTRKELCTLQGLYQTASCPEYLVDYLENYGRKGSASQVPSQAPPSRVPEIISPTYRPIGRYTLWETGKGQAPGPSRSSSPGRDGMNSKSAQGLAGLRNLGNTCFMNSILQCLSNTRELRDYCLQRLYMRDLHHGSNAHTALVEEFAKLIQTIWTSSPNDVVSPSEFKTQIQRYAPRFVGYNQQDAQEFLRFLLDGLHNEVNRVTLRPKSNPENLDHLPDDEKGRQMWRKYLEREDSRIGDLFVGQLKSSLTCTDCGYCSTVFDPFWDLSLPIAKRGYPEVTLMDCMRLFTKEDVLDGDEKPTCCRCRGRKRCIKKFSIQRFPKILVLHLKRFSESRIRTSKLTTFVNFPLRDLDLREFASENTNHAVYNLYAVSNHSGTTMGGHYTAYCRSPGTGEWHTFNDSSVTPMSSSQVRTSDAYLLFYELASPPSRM

beta 2 (h) = beta 2 (h) (Homo sapiens, UniProt P07550); test: biochemical; settings: read-out: % Inhibition of Specific Binding
NMDA = settings: 10 μM
Acetylcholinesterase (h) = Acetylcholinesterase (h) (Homo sapiens, UniProt P22303); test: biochemical; settings: read-out: % Inhibition of Specific Binding

Row | Structure (SMILES) | inhibition at 10 µM [1] [%] | inhibition at 1 µM (Matrix metalloprotease 2) [%] | inhibition at 10 µM (Matrix metalloprotease 2) [%] | inhibition at 10 µM (M1 (h)) [%] | inhibition at 1 µM (FAP) [%] | inhibition at 10 µM (FAP) [%] | inhibition at 1 µM (DPP7) [%] | inhibition at 10 µM (DPP7) [%] | inhibition at 10 µM (5-HT2A (h)) [%] | inhibition at 10 µM (5-HT transporter (h)) [%] | Percentage inhibition (%) ([2]; 1 μM) | Percentage inhibition (%) ([2]; 10 μM) | inhibition at 1 µM (Caspase-6) [%] | inhibition at 10 µM (Caspase-6) [%] | inhibition at 10 µM (5-HT1A (h)) [%] | inhibition at 10 µM (M2 (h)) [%] | inhibition at 1 µM (Caspase-9) [%] | inhibition at 10 µM (Caspase-9) [%] | inhibition at 1 µM (DPP8) [%] | inhibition at 10 µM (DPP8) [%] | further results
1 | CCCCCC(=O)N[C@H]1CSCc2cc(cc(CN3CCN(C(=O)CN4CCN(CC(=O)O)CCN(CC(=O)O)CCN(CC(=O)O)CC4)CC3)c2)CSC[C@@H](C(=O)N[C@@H](CC(=O)O)C(N)=O)NC(=O)[C@H](Cc2ccccc2)NC(=O)[C@H](CCC(N)=O)NC(=O)[C@H]([C@@H](C)O)NC(=O)[C@@H]2CCCN2C(=O)[C@@H]2CCCN2C1=O [Compound 3BP-3407, Hex-[Cys(tMeBn(DOTA-PP))-Pro-Pro-Thr-Gln-Phe-Cys]-Asp-NH2] (Hexanoyl-CPPTQFCD-NH2; linker 1-7 via X1) | -8 | 3 | 3 | 6 | 98 | 99 | 2 | -3 | -2 | -3 | 1 | −6 | 1 | -1 | -3 | -4 | 5 | 8 | 1 | 5 | inhibition at 10 µM (A2A (h)): -4%; inhibition at 1 µM [3]: -2%; inhibition at 10 µM [3]: 4%; inhibition at 1 µM [4]: 3%; inhibition at 10 µM [4]: 7%; inhibition at 10 µM (beta 2 (h)): 4%; % Inhibition of Specific Binding (NMDA): 9%; inhibition at 10 µM (Acetylcholinesterase (h)): -6%
2 | CCCCCC(=O)N[C@H]1CSCc2cc(CSCCNC(=O)CN3CCN(CC(=O)O)CCN(CC(=O)O)CCN(CC(=O)O)CC3)cc(c2)CSC[C@@H](C(=O)O)NC(=O)[C@H](Cc2ccccc2)NC(=O)[C@H](CCC(N)=O)NC(=O)[C@H]([C@@H](C)O)NC(=O)[C@@H]2CCCN2C(=O)[C@@H]2CCCN2C1=O [Compound 3BP-3554, Hex-[Cys(tMeBn(DOTA-AET))-Pro-Pro-Thr-Gln-Phe-Cys]-OH] | -5 | -1 | -2 | 8 | 97 | 99 | -1 | -7 | 4 | -8 | −2 | −17 | 6 | -3 | -5 | 7 | -1 | -2 | 1 | 11 | inhibition at 10 µM (A2A (h)): -16%; inhibition at 1 µM [3]: -4%; inhibition at 10 µM [3]: 4%; inhibition at 1 µM [4]: 0%; inhibition at 10 µM [4]: -1%; inhibition at 10 µM (beta 2 (h)): 8%; % Inhibition of Specific Binding (NMDA): 1%; inhibition at 10 µM (Acetylcholinesterase (h)): 1%
